Measured values taken from ChEMBL document CHEMBL6177939, “The role of silicon in drug discovery: a review” (RSC Med Chem, 2024).
≈ marks a conversion by molar mass, not a printed value. Each block holds one molecule with its values, some of them ahead of it.

Key:
HCT-8 = assay: Cytotoxicity against human HCT-8 cells assessed as inhibition of cell growth at 5 ug/ml relative to control; type: functional
Bel-7402 = assay: Cytotoxicity against human Bel-7402 cells assessed as inhibition of cell growth at 5 ug/ml relative to control; type: functional
Enterococcus durans [1] = assay: Antibacterial activity against Enterococcus durans B-603 (all Russian collections of micro-organism) assessed as reduction in bacterial growth incubated for 24 hrs by broth micro-dilution method; type: functional
Bacillus subtilis [2] = assay: Antibacterial activity against Bacillus subtilis B-407 (all Russian collections of micro-organism) assessed as reduction in bacterial growth incubated for 24 hrs by broth micro-dilution method; type: functional
Pseudomonas aeruginosa = assay: Antibacterial activity against Pseudomonas aeruginosa PAO1 assessed as reduction in bacterial growth by broth micro-dilution method; type: functional
Staphylococcus aureus = assay: Antibacterial activity against methicillin-resistant Staphylococcus aureus assessed as reduction in bacterial cell growth by broth micro-dilution method; type: functional
[3] = test system: Staphylococcus epidermidis; assay: Antibacterial activity against methicillin-resistant Staphylococcus epidermidis 3382 assessed as reduction in bacterial cell growth by broth micro-dilution method; type: functional
Acetylcholinesterase = Acetylcholinesterase (Homo sapiens, UniProt P22303); assay: Binding affinity to AChE (unknown origin) using acetylthiocholine iodide as substrate assessed as inhibition constant by Ellman's method
[4] = In vivo inhibition of AChE activity in Sprague-Dawley rat brain assessed as effective dose; type: functional
[5] = Acute toxicity in ip dosed Sprague-Dawley rat assessed as lethal dose; type: organism-based; conditions: in vivo
[6] = test system: Human immunodeficiency virus 1; assay: Antiviral activity against HIV-1 infected in human MT4 cells; type: functional, organism-based; conditions: Human immunodeficiency virus 1, MT4
[7] = molecular target: T1, Angiotensin-converting enzyme (Homo sapiens, UniProt P12821); assay: Inhibition of ACE (unknown origin) using Hip-His-Leu-OH peptide as substrate by fluorimetric analysis
Plasmodium falciparum [8] = assay: Antimalarial activity against chloroquine-sensitive Plasmodium falciparum NF54 assessed as reduction in parasite growth; type: functional, organism-based
Plasmodium falciparum [9] = assay: Antimalarial activity against […] Plasmodium falciparum Dd2 assessed as reduction in parasite growth; type: functional, organism-based
[10] = Antiproliferative activity against human WHCO1 cells assessed as reduction in cell viability incubated for 48 hrs by MTT assay; type: functional, cell-based; conditions: WHCO1, 48 h
Interstitial collagenase = Interstitial collagenase (Homo sapiens, UniProt P03956); assay: Inhibition of MMP-1 (unknown origin)
Tetranychus cinnabarinus = assay: Toxicity in Tetranychus cinnabarinus assessed as lethal dose; type: organism-based
Giardia intestinalis = assay: Antiparasitic activity against Giardia intestinalis assessed as reduction in parasite growth incubated for 24 hrs by MTT assay; type: functional, organism-based; conditions: Giardia duodenalis
Trichomonas vaginalis = assay: Antiparasitic activity against Trichomonas vaginalis assessed as reduction in parasite growth measured for 24 hrs by MTT assay; type: functional, organism-based
Mus musculus = assay: Antiinflammatory activity against carrageenin-induced paw edema AKR mouse model assessed as inhibition of CPE at 0.01 micromol/kg, ip relative to control; type: functional; parameters: scale not given: the % may be the effect or the level left; conditions: dose 0.01 µmol/kg
[11] = Inhibition of soya bean lipoxygenase; parameters: species or system Glycine max
Aspergillus fumigatus = assay: Antifungal activity against Aspergillus fumigatus ATCC 66567 assessed as reduction in fungal growth; type: functional
Penicillium chrysogenum = assay: Antifungal activity against Penicillium chrysogenum ATCC 20044 assessed as reduction in fungal growth; type: functional
Fusarium solani = assay: Antifungal activity against Fusarium solani ATCC 20327 assessed as reduction in fungal growth; type: functional
Escherichia coli [12] = assay: Antibacterial activity against Escherichia coli; type: functional
Bacillus subtilis [13] = assay: Antibacterial activity against Bacillus subtilis; type: functional
Escherichia coli [14] = assay: Antibacterial activity against Escherichia coli B-1238 (all Russian collections of micro-organism) assessed as reduction in bacterial growth by broth micro-dilution method; type: functional
[15] = test system: Human immunodeficiency virus 1; assay: Antiviral activity against HIV-1 IIIB infected in human MT2 cells assessed as reduction in virus-induced cytopathic effect incubated for 4 days by spectrophotometric based MTT assay; type: functional, organism-based; conditions: Human immunodeficiency virus 1, IIIB, MT2, 96 h
[16] = molecular target: Human immunodeficiency virus type 1 reverse transcriptase (Human immunodeficiency virus 1, UniProt Q72547); assay: Inhibition of recombinant HIV-1 reverse transcriptase
[17] = molecular target: T1, Angiotensin-converting enzyme; assay: Binding affinity to ACE (unknown origin) assessed as inhibition constant
Enterococcus durans [18] = assay: Antibacterial activity against Enterococcus durans B-603 (all Russian collections of micro-organism) assessed as reduction in bacterial growth by broth micro-dilution method; type: functional
Bacillus subtilis [19] = assay: Antibacterial activity against Bacillus subtilis B-407 (all Russian collections of micro-organism) assessed as reduction in bacterial growth by broth micro-dilution method; type: functional

T1 sequence (P12821 whole entry): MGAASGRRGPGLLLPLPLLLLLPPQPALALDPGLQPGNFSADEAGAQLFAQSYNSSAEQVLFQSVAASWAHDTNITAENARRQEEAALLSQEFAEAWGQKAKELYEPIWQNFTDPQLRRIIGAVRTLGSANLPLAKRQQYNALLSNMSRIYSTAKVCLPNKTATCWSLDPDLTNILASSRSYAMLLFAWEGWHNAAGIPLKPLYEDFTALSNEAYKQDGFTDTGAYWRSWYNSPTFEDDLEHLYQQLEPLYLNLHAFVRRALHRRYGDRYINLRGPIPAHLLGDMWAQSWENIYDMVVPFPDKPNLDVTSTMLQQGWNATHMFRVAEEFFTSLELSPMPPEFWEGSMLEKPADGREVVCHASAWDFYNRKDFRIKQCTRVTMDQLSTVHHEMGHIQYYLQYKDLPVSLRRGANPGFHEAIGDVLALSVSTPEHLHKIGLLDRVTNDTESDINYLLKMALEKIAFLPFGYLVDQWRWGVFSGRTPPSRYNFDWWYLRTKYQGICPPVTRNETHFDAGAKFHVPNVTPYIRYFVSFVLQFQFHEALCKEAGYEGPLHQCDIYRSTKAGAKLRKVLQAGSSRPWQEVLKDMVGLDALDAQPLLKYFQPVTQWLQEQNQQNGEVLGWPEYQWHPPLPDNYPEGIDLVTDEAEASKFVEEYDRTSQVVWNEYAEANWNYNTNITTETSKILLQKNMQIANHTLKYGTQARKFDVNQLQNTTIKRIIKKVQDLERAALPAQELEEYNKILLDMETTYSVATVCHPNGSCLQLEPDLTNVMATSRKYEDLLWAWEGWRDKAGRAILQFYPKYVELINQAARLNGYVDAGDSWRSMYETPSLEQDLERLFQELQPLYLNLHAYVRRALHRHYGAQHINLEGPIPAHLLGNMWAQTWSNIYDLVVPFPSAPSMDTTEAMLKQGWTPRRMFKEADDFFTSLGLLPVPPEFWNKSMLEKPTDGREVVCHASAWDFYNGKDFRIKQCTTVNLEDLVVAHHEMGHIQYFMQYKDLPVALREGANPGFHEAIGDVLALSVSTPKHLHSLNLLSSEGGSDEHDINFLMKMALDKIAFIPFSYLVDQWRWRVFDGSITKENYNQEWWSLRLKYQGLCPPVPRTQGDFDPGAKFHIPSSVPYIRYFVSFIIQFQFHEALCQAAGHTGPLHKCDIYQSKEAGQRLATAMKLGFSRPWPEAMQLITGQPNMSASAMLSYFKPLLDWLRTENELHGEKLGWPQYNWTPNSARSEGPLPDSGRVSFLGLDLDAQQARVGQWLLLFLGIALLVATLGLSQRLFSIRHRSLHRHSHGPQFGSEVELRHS
Acetylcholinesterase, sequence (P22303 whole entry): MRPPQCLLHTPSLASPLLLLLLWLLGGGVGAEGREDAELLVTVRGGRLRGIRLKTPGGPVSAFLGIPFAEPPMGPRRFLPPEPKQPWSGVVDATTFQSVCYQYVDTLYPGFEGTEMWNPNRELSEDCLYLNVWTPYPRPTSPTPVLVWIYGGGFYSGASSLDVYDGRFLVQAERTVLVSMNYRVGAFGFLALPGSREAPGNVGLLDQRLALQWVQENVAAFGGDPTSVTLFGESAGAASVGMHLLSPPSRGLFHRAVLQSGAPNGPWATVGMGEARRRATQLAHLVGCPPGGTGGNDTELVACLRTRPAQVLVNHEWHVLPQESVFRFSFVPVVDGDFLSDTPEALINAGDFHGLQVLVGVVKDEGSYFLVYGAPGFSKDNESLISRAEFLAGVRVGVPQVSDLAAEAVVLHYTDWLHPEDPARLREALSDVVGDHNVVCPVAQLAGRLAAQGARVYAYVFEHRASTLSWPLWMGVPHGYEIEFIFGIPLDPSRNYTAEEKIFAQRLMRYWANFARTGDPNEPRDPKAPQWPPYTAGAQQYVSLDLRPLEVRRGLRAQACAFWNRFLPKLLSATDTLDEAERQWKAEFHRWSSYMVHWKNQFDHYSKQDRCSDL
Interstitial collagenase, sequence (P03956 whole entry): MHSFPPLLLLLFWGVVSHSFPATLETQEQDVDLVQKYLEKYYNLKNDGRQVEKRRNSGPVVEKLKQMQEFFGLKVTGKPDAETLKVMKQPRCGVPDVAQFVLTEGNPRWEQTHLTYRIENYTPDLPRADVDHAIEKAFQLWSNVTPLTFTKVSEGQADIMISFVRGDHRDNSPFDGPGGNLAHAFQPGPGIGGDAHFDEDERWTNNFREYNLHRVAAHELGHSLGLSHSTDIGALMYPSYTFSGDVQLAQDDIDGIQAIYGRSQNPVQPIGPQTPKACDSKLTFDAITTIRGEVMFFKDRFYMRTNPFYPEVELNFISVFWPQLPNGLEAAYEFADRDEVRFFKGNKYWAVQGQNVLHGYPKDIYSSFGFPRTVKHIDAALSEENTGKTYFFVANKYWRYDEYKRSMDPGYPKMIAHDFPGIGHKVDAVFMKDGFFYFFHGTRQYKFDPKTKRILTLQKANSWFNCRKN

Compound: CC(C)OP(=O)(NCCC[Si-]123OCC[N+]1(CCO2)CCO3)OCCn1c(=O)c(F)cn(C2CCCO2)c1=O (configuration not stated)
inhibition at 5 µg/mL (HCT-8): 29.3% | inhibition at 5 µg/mL (Bel-7402): 29.3%

Compound: Fc1ccc(/N=C/c2c(OCc3cn(CCC[Si-]456OCC[N+]4(CCO5)CCO6)nn3)ccc3ccccc23)cc1 (configuration not stated)
MIC (Pseudomonas aeruginosa): 13.2 µg/mL (≈ 23.6 µM) | MIC (Staphylococcus aureus): 3.25 µg/mL (≈ 5.79 µM) | MIC [3]: 3.25 µg/mL (≈ 5.79 µM)

Compound: C[Si](C)(C)c1cccc(C(=O)C(F)(F)F)c1
Ki (Acetylcholinesterase): 0.047 nM | ED50 [4]: 2.5 mg/kg | LD50 [5]: 180 mg/kg

Compound: Cc1cccc(C(O)c2c(C(C)C)c(=O)[nH]c(=O)n2COCc2ccccc2)c1 (configuration not stated)
EC50 [6]: 200 nM

Compound: CC(CS)C(=O)N1C[Si](C)(C)C[C@H]1C(=O)O (mixture of isomers)
IC50 [7]: 43 nM

Compound: C[Si](C)(C)CNc1ccnc2cc(Cl)ccc12
IC50 (Plasmodium falciparum [8]): 248 nM | IC50 (Plasmodium falciparum [9]): 525 nM | IC50 [10]: 4410 nM

Compound: C[Si](C)(C)n1c(=S)c(=P(c2ccccc2)(c2ccccc2)c2ccccc2)/c1=N/c1ccccc1
IC50 (Interstitial collagenase): ~41 nM

Compound: C/C(=C(\OC(=O)C(C)(C)C)c1c(C)c(C)nn1C)c1ccc([Si](C)(C)C)cc1
LC50 (Tetranychus cinnabarinus): 0.062 ng/mL (≈ 0.000156 µM)

Compound: CC1C[N+]23CC(C)O[Si-]2(CCC/N=C/c2ccc4c5c6c(ccc25)C=CCC6=CC4)(O1)OC(C)C3 (configuration not stated)
IC50 (Giardia intestinalis): 53300 nM | IC50 (Trichomonas vaginalis): 1750 nM

Compound: C[Si](C)(C)CCC[n+]1ccsc1N.[I-]
Activity (Mus musculus): 55% | IC50 [11]: 10 nM

Compound: C[Si](O)(O[Si](C)(CCCn1cnc2c(N)ncnc21)c1ccccc1)c1ccccc1 (configuration not stated)
IC50 [15]: 10000 nM | IC50 [16]: 6000 nM

Compound: CC(C)C[C@H](C[Si](O)(O)CNC(=O)CCc1ccccc1)C(=O)NC(=O)N[C@@H](CC(C)C)C(=O)O
Ki [17]: 10 nM

Second part, the molecule after the results:

MIC (Enterococcus durans [1]): 12.5 µg/mL (≈ 29.8 µM) | MIC (Bacillus subtilis [2]): 6.2 µg/mL (≈ 14.8 µM)
Compound: COc1ccc(-c2cc(CNCCC[Si-]345OCC[N+]3(CCO4)CCO5)on2)cc1 (configuration not stated)

MIC (Aspergillus fumigatus): 0.08 µg/mL (≈ 0.218 µM) | MIC (Penicillium chrysogenum): 0.08 µg/mL (≈ 0.218 µM) | MIC (Fusarium solani): 0.08 µg/mL (≈ 0.218 µM)
Compound: COc1ccc(O)c(/C=N/CCC[Si-]234OCC[N+]2(CCO3)CCO4)c1 (configuration not stated)

MIC (Escherichia coli [12]): 0.765 µg/mL | MIC (Bacillus subtilis [13]): 0.8 µg/mL
Compound: CCN(CC)CC.S=C(S)NCCC[Si-]123OCC[N+]1(CCO2)CCO3 (configuration not stated)

MIC (Escherichia coli [14]): 62.5 µg/mL (≈ 165 µM)
Compound: O=C(NCCC[Si-]123OCC[N+]1(CCO2)CCO3)c1cc2c([nH]1)CCCC2 (configuration not stated)

MIC (Enterococcus durans [18]): 3.1 µg/mL (≈ 9.53 µM) | MIC (Bacillus subtilis [19]): 6.2 µg/mL (≈ 19.1 µM)
Compound: O=C(NCCC[Si-]123OCC[N+]1(CCO2)CCO3)c1ccc[nH]1 (configuration not stated)
